We go through one compound from patent US5846944A (priority 1997, dated 1998).

Series [1] can be described thus: Body weight of hypercholesterolemic rabbits (Example 1). In kind it is in vivo, New Zealand white rabbits. The protocol:
(§1) Experiments were carried out on six to eight week old female New Zealand white rabbits weighing between 1.8 and 2.0 kg. All procedures relating to the care and welfare of test animals within this experimental protocol conformed to a Standard Operating Procedure (SOP) approved by the Council on Animal Care, University of Saskatchewan, Saskatoon, Saskatchewan, Canada.
(§2) Blood samples for measurement of triglycerides (TG), total cholesterol (TC), low density lipoprotein cholesterol (LDL-C), very-low density lipoprotein cholesterol (VLDL-C), and high density lipoprotein cholesterol (HDL-C) were taken before the animals were assigned to the experimental diet (T=0), and after 1 (T=1) and 2 months (T=2) on the experimental diet. The rabbits were sacrificed under pentabarbital anesthesia at the end of 2 months. The aorta was removed for the assessment of atherosclerotic plaques.
Much has been made of the importance of the composition of certain dietary fats toward health, particularly in relation to the degree of saturation of the fatty acid composition of the triglycerides.

The subject of series [2] is New Zealand white rabbits. Put plainly: Serum lipids in rabbits (Example 4). In kind it is in vivo. The settings on record: + 1% cholesterol. On the procedure:
as §1, §2

A short description of series [3]: Body weight of hypercholesterolemic rabbits (Example 4). In kind it is in vivo, New Zealand White rabbits. The settings on record: + 1% cholesterol. The protocol:
as §1, §2

The test system of series [4] is NIDDM, Zucker diabetic fatty rat (ZDF). Briefly: NIDDM in Zucker diabetic fatty rats (Example 5). It counts as in vivo. The settings on record: SDG 22 mg/kg daily orally in drinking water; two rats examined; two untreated rats showed clear signs. On the procedure:
Oxidative stress was assessed by measuring lipid peroxidation product malondialdehyde (MDA) a measure of levels of oxygen radicals, and tissue chemiluminescence (CL) an index of antioxidant reserve in blood and pancreatic tissue. Male 5-6 weeks old ZDF and age match Zucker lean control (ZLC) rats were obtained from Charles River, St. Constant, Quebec, Canada.
Rats were tested for glucosuria to establish diabetes at 5-6 weeks before they were assigned to various groups. None of the rats had glucosuria at this age. […] At the end of the protocol, under anesthesia, blood samples were taken to measure serum glucose and MDA, and pancreas were removed to assess pancreatic MDA and antioxidant reserve.

The mark [5] stands for this setting: 0 months, SDG 5 mg/kg or SDG (89% pure) 11.24 mg/kg group.
[6] abbreviates: 1 month, SDG 5 mg/kg or SDG (89% pure) 11.24 mg/kg, orally daily.
Setting [7] is: 2 months, SDG 5 mg/kg or SDG (89% pure) 11.24 mg/kg, orally daily.

Regarding `COc1cc(CC(COC2OC(CO)C(O)C(O)C2O)C(COC2OC(CO)C(O)C(O)C2O)Cc2ccc(O)c(OC)c2)ccc1O` (centres unmarked) [SDG, secoisolariciresinol diglucoside], the Body weight came out at 1.25 ± 0.03 kg in series [1] (0 month, + 1% cholesterol group); 1.75 ± 0.02 kg in series [1] (0 month, control diet without cholesterol); 1.98 ± 0.08 kg in series [1] (1 month, + 1% cholesterol, flaxseed 15% or SDG 15 mg/kg oral); 2.34 ± 0.04 kg in series [1] (1 month, control diet without cholesterol, flaxseed 15% or SDG 15 mg/kg oral); 2.35 ± 0.10 kg in series [1] (2 months, + 1% cholesterol, flaxseed 15% or SDG 15 mg/kg oral); 1.47 ± 0.02 kg in series [3] (setting [5]). Further, the Body weight in series [3] (setting [6]) is listed as 2.45 ± 0.04 kg. For the same compound, the “Serum HDL-C levels” value was 0.83 ± 0.08 mmol/L in series [2] (setting [5]), 0.76 ± 0.42 mmol/L in series [2] (setting [6]) and 0.48 ± 0.10 mmol/L in series [2] (setting [7]). The “Serum LDL-C levels” value amounted to 0.89 ± 0.14 mmol/L in series [2] (setting [5]), 75.98 ± 9.04 mmol/L in series [2] (setting [6]) and 58.68 ± 9.69 mmol/L in series [2] (setting [7]). Further, the figures for the Serum Triglyceride levels in series [2] (setting [5]), in series [2] (setting [6]) and in series [2] (setting [7]) were 1.30 ± 0.19 mmol/L, 0.97 ± 0.16 mmol/L and 0.87 ± 0.20 mmol/L, respectively. Further, the results for the “Serum VLDL-C levels” value in series [2] (setting [5]), in series [2] (setting [6]) and in series [2] (setting [7]) were 0.59 ± 0.09 mmol/L, 0.44 ± 0.08 mmol/L and 0.39 ± 0.09 mmol/L, respectively. Further, the “Total serum cholesterol levels” value is 2.31 ± 0.19 mmol/L in series [2] (setting [5]), 77.24 ± 7.22 mmol/L in series [2] (setting [6]) and 59.61 ± 9.8 mmol/L in series [2] (setting [7]). Further, the signs of diabetes entry in series [4] was “showed no signs of diabetes”.
